Reference: patent US20080200461A1, “MODULATORS OF ACETYL-COENZYME A CARBOXYLASE AND METHODS OF USE THEREOF” (Cropsolution, Inc., priority 2007, published 2008)
Where two headings read alike, the source gives them in different places.

How the values were obtained:
Ustilago maydis ACC = Ustilago maydis ACC (Mycosarcoma maydis, UniProt A0A0D1DYD5); experiment: biochemical; assay type: biochemical
hACC1 = target: T1, hACC1 (Homo sapiens, UniProt Q13085); experiment: Recombinant human ACC1 activity, [14C]bicarbonate incorporation; assay type: biochemical; details: Table II; read-out: Enzyme Activity IC50 Human ACC1
T1 construct: we cloned full-length cDNAs for both the human isoforms (hACC1 and hACC2); His tag (from pET30a) (C); made in house; host or cells: sf9 insect cells (baculovirus)

hACC2 = target: T2, hACC2 (Homo sapiens, UniProt O00763); experiment: Recombinant human ACC2 activity, [14C]bicarbonate incorporation; assay type: biochemical; details: Table II; read-out: Enzyme Activity IC50 Human ACC2
T2 construct: delete amino acids 1-148 and add Met-Gly in front of Lys149 in the final product; His tag (from pET30a) (C); made in house; host or cells: sf9 insect cells (baculovirus)

Botrytis cinerea = experiment: Fungicidal activity, microtiter plate agar growth assay; assay type: cell-based; details: read-out: In vivo IC50 B. cinerea
Phytophthora infestans = experiment: microbe, parasite or virus in culture; assay type: cell-based; details: read-out: In vivo IC50 P. infestens
Stagonospora nodorum = experiment: Fungicidal activity, microtiter plate agar growth assay; assay type: cell-based; details: Parastagonospora nodorum, read-out: In vivo IC50 S. nodorum
Septoria tritici = experiment: as above; assay type: cell-based; details: Zymoseptoria tritici, read-out: In vivo IC50 S. tritici
Ustilago maydis K53R ACC = Ustilago maydis K53R ACC (Mycosarcoma maydis, UniProt A0A0D1DYD5, K53R); experiment: biochemical; assay type: biochemical; details: K53R mutation that confers resistance to soraphen
rat liver ACC [1] = target: T3, rat liver ACC (Rattus norvegicus, UniProt P11497); experiment: Rat liver ACC activity, [14C]bicarbonate incorporation; assay type: biochemical
Text: (§1) To test the effect of compounds against mammalian ACC both human and rat enzyme preparations were employed. ACC was purified from rat liver according to published protocols (Rubink and Winder, J Appl Physiol 98, 1221-1227 (2005); Trumble et al., Eur J Biochem 231, 192-198 (1995)). Rat liver contains both ACC1 and ACC2 in a ˜85:15 ratio, respectively (Harwood et al., J Biol Chem 278, 37099-37111 (2003)).

yeast wt BC domain = yeast wt BC domain (Saccharomyces cerevisiae, UniProt Q00955); experiment: Tryptophan fluorescence binding assay; details: for EC50: protein concentration = 200 nM
Description: The soraphen binding pocket contains a tryptophan residue. Thus, tryptophan fluorescence may be used to directly monitor binding of a ligand to this site. […] We conducted a similar assay in a 96-well format. Briefly, 200 nM protein in 100 mM Tris pH 8 containing 100 mM NaCl and 0.01% Tween 20 (v/v) was incubated in the presence of various amounts of test compounds dissolved in DMSO (1% v/v final concentration). Tryptophan fluorescence at […] was measured in a Pherastar plate reader (BMG Labtech) using 280 nm excitation.

rat liver ACC [2] = target: T3, rat liver ACC; experiment: FP saturation binding assay
Text: as §1

[3] = target: BC domain of eukaryotic ACCs; details: literature; cited from earlier work
bacterial BC subunits = details: literature; cited from earlier work
yeast BC domain = yeast BC domain (Saccharomyces cerevisiae, UniProt Q00955); details: cited from earlier work
[4] = Table II, enzyme concentration 50 nM, read-out: Enzyme Activity IC50 U. maydis ACC
[5] = fungal growth on agar, 20° C., 3-5 days
[6] = Table I, read-out: In vitro IC50 U. maydis ACC activity
[7] = Table II, enzyme concentration 25 nM, ND = none detected, read-out: Enzyme Activity IC50 Rat liver ACC

Sequence of Ustilago maydis K53R ACC (A0A0D1DYD5 entry or part of it K53R): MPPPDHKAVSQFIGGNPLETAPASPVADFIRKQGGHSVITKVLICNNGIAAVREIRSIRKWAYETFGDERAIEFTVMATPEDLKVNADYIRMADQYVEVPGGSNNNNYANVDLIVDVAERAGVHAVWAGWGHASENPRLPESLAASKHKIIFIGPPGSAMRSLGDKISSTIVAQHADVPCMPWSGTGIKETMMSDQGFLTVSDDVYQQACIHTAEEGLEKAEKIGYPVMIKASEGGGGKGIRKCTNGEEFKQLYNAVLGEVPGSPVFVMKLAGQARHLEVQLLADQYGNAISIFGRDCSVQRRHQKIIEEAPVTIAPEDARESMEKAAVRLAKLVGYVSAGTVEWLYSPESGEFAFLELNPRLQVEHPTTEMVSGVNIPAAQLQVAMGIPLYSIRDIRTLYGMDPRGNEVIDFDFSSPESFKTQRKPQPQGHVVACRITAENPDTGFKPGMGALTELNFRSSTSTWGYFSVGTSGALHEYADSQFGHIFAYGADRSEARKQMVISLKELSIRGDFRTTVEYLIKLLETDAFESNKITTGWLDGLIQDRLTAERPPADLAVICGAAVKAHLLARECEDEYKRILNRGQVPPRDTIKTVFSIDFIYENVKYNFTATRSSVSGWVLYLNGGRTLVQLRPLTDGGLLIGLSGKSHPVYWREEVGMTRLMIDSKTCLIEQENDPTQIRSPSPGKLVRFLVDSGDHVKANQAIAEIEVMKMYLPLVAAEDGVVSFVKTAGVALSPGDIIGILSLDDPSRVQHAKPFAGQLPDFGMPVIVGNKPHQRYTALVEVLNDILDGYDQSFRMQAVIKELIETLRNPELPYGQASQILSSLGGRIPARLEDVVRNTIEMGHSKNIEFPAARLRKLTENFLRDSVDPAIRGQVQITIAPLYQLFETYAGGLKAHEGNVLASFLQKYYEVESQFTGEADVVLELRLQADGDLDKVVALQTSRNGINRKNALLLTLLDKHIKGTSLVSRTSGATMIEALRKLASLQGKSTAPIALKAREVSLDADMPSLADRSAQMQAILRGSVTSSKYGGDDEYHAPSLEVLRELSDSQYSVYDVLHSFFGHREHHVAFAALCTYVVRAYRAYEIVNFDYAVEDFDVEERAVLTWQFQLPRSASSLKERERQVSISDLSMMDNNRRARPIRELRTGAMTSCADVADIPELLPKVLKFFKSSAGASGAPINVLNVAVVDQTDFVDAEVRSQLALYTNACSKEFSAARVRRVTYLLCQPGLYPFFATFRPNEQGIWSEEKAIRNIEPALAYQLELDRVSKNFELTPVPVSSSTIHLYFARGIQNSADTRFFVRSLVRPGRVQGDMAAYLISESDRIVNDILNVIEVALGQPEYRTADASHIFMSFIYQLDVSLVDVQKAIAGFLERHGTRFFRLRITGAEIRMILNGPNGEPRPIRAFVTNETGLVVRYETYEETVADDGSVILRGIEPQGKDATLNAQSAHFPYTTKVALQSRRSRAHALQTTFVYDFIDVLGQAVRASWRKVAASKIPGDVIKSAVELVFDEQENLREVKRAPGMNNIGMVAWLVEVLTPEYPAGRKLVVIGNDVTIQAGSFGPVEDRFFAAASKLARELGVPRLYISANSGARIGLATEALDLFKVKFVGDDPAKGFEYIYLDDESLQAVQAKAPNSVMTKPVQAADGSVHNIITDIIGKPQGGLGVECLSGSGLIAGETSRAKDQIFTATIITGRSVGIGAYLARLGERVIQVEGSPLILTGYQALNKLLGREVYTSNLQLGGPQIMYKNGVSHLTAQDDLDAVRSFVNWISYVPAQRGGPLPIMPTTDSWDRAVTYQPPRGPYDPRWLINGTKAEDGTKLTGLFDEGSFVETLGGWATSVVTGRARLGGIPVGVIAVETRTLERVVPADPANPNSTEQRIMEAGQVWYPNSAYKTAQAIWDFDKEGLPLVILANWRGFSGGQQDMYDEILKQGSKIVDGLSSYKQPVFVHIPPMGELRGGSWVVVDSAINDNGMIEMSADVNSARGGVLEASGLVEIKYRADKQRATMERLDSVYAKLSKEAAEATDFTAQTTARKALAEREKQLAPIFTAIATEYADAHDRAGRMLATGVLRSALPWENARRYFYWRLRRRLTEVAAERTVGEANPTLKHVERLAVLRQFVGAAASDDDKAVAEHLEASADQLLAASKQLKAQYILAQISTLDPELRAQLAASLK
T2 sequence (O00763 with tags, fused parts or gaps): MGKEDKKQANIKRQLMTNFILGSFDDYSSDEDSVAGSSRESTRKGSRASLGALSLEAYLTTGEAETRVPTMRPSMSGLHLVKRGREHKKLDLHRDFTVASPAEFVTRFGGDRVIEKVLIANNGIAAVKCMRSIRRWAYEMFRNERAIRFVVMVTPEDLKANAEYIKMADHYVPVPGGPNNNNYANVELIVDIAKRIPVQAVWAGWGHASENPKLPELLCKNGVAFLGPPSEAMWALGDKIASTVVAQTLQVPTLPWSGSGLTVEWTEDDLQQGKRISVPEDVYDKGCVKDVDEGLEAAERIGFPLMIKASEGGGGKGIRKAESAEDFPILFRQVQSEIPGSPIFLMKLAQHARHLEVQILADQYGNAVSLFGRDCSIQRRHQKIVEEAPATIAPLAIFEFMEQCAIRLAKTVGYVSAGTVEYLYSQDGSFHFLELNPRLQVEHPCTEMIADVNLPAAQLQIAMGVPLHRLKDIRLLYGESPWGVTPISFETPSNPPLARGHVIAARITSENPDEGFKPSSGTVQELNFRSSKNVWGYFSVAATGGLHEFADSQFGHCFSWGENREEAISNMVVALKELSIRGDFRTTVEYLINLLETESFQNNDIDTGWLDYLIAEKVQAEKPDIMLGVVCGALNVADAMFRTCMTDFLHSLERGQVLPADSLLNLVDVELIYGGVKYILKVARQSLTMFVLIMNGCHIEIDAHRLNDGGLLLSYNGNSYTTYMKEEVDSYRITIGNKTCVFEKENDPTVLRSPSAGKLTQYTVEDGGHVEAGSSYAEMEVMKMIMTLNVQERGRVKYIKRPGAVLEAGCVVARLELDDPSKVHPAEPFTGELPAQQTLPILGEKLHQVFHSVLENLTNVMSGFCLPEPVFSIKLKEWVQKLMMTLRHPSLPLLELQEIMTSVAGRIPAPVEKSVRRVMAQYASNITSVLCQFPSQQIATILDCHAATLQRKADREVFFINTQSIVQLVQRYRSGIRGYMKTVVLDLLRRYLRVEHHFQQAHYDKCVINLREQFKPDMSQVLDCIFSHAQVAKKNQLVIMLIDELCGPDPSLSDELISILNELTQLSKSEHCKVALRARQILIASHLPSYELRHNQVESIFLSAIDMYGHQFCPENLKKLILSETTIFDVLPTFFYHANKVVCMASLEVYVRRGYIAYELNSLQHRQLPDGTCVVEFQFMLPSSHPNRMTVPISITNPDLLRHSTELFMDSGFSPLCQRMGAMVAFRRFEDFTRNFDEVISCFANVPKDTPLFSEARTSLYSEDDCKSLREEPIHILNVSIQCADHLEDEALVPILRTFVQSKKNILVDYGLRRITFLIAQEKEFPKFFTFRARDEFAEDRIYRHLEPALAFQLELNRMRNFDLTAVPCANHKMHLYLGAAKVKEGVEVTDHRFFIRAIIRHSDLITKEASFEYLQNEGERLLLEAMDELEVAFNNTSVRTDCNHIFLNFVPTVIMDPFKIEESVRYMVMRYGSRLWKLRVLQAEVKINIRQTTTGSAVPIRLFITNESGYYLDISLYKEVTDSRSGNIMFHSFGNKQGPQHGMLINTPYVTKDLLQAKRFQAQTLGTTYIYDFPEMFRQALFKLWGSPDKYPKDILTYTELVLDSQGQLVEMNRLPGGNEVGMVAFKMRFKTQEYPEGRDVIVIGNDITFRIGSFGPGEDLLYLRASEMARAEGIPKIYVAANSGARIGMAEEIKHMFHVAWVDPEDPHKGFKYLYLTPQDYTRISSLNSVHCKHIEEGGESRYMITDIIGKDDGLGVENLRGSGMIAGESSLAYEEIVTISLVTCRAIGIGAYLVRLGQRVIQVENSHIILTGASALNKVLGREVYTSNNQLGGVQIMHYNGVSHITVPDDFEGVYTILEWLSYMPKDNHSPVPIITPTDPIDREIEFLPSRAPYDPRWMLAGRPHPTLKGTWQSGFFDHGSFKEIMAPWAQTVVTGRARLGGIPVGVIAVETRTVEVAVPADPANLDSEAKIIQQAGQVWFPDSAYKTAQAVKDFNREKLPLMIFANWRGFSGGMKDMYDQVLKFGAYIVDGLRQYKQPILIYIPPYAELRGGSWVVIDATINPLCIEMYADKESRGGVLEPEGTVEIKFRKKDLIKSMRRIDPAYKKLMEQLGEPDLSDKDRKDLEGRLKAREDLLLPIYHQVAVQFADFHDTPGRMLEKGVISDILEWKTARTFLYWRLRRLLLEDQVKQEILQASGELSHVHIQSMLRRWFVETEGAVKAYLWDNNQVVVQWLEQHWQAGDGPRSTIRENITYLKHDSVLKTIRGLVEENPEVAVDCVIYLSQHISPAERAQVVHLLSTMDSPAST
Sequence of yeast wt BC domain (Q00955 58-567): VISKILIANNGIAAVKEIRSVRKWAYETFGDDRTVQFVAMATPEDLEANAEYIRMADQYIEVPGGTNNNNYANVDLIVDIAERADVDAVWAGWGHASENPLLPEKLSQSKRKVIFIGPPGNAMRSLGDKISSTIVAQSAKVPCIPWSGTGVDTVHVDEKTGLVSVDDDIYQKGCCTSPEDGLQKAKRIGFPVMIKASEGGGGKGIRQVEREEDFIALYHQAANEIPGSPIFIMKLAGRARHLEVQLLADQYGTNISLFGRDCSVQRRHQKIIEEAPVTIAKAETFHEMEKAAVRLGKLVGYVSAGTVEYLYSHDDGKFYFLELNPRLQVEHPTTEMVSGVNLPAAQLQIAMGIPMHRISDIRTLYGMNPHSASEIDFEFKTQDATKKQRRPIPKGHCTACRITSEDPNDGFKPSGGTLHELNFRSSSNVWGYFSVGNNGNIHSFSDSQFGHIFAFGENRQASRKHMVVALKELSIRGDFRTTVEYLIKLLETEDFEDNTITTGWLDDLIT

Compound	IC50 (Ustilago maydis ACC; [4])	IC50 (hACC1)	IC50 (hACC2)	IC50 (Botrytis cinerea; [5])	IC50 (Phytophthora infestans)	IC50 (Stagonospora nodorum; [5])	IC50 (Septoria tritici; [5])	IC50 (Ustilago maydis ACC; [6])	further results
CC[N+](CC)(CCCCN(Cc1ccc2ccccc2c1)C(=O)c1cc2cccc(OC)c2cc1OC)Cc1cc(C)cc(C)c1 [Compound 260]	1.4 µM	2.8 µM	11 µM	–	–	–	–	–	–
COc1cc2c(=O)n(CCCC[N+](C)(C)Cc3ccc(Br)cc3)c(=S)n(Cc3ccc(Br)cc3)c2c(OC)c1OC [Compound 15]	–	–	–	2 µM	18 µM	8 µM	4 µM	16 µM	–
CC[N+](CC)(CCCCN(Cc1ccc2ccccc2c1)C(=O)c1sc2cccc(Cl)c2c1Cl)Cc1cc(C)cc(C)c1.[Br-] [Compound 322]	0.04 µM	0.25 µM	1 µM	–	–	–	–	–	Effect of K53R mutation on inhibition of ACC by compound (Ustilago maydis K53R ACC): confers resistance to inhibition
CO[C@H]1CCCC[C@@H](c2ccccc2)OC(=O)[C@@H](C)[C@@]2(O)O[C@H]([C@@H](C)[C@H](O)[C@H]2OC)[C@@H](C)/C=C/[C@H]1OC [soraphen A, Soraphen A, reference compound]	0.017 µM	0.011 µM	0.0027 µM	–	–	–	–	–	IC50 (Ustilago maydis ACC; Table III, enzyme concentration = 50 nM, read-out: Enzyme activity IC50 U. maydis wt ACC): 0.017 µM; IC50 (Ustilago maydis ACC; read-out: IC50 inhibition of fungal ACC): 0.017 µM; IC50 (rat liver ACC [1]; tight binding conditions, nominal enzyme concentration 25 nM, read-out: IC50 rat liver ACC activity): 0.014 µM; EC50 (yeast wt BC domain): 0.09 µM; Kd (rat liver ACC [2]): 0.0032 µM; Kd [3]: ~0.001 µM; Effect on bacterial BC subunits (bacterial BC subunits): no effect; Kd (yeast BC domain): 0.001 µM
Cc1cc(C)cc(CN(CCCC[N+](C)(C)Cc2cc(C)cc(C)c2)Cc2cc(C)cc(C)c2)c1 [Compound 19]	–	–	–	7 µM	25 µM	64 µM	22 µM	21 µM	–
CC[N+](CC)(CCCCN(Cc1ccc2c(c1)OCCO2)S(=O)(=O)c1ccc2ccccc2c1)Cc1cc(C)cc(C)c1.[Br-] [Compound 184]	–	–	–	–	–	–	–	–	Effect of K53R mutation on inhibition of ACC by compound (Ustilago maydis K53R ACC): confers resistance to inhibition
CC[N+](CC)(CCCCN(Cc1cc(C)cc(C)c1)C(=O)c1cc(C)cc(C)c1)Cc1cc(C)cc(C)c1 [Compound 76]	30 µM	–	–	–	–	–	–	–	–
Cc1cc(C)cc(CN(CCC[N+](C)(C)Cc2cc(C)cc(C)c2)Cc2cc(C)cc(C)c2)c1 [Compound 26]	–	–	–	1 µM	23.5 µM	5 µM	6 µM	39 µM	–
CC[N+](CC)(CCCCN(Cc1ccc2ccccc2c1)S(=O)(=O)c1cccc(Cl)c1Cl)Cc1cc(C)cc(C)c1 [Compound 237]	1.4 µM	12 µM	50 µM	–	–	–	–	–	–
Cc1cc(C)cc(CN(CCCC[N+](C)(C)Cc2cc(C)cc(C)c2)C(=S)Nc2c(F)cccc2F)c1 [Compound 74]	9 µM	–	–	–	–	–	–	–	–
CC[N+](CC)(CCCCN(Cc1ccc2ccccc2c1)C(=O)c1sc2c(Cl)c(OC)ccc2c1Cl)Cc1cc(C)cc(C)c1 [Compound 326]	0.18 µM	0.15 µM	1.5 µM	–	–	–	–	–	–
COc1cc2c(=O)n(CCCC[N+](C)(CCC[N+](C)(C)Cc3cc(C)cc(C)c3)Cc3cc(C)cc(C)c3)c(SCc3cc(C)cc(C)c3)nc2c(OC)c1OC (centres unmarked) [Compound 22]	–	–	–	6.7 µM	35 µM	4.6 µM	4.4 µM	12 µM	–
Cc1cc(C)cc(CN(CC[N+](C)(C)Cc2cc(C)cc(C)c2)Cc2cc(C)cc(C)c2)c1 [Compound 25]	–	–	–	1.4 µM	18.2 µM	5.8 µM	10 µM	42 µM	–
Diethyl(3,5-dimethylbenzyl)[N-(2-naphthylmethyl)-2-naphthalenesulfonamidobutyl]ammonium bromide [Compound 200]	0.56 µM	7.6 µM	22 µM	–	–	–	–	–	IC50 (rat liver ACC [1]; [7]): 11 µM
Cc1cc(C)cc(CN(CCCC[N+](C)(C)Cc2cc(C)cc(C)c2)S(=O)(=O)c2ccc(Br)cc2)c1 [Compound 61]	9 µM	–	–	–	–	–	–	–	–
CC[N+](CC)(CCCCN(Cc1cc(C)cc(C)c1)S(=O)(=O)c1ccc2ccccc2c1)Cc1cc(C)cc(C)c1 [Compound 85, Diethyl(3,5-dimethylbenzyl)[N-(3,5-dimethylbenzyl)-2-naphthalenesulfonamidobutyl]ammonium bromide]	15 µM	–	–	–	–	–	–	–	IC50 (rat liver ACC [1]; [7]): 43 µM
CC[N+](CC)(CCCCN(Cc1cc(C)cc(C)c1)Cc1cc(C)cc(C)c1)Cc1cc(C)cc(C)c1.[Br-] [Compound 28, Diethyl(3,5-dimethylbenzyl)[bis-(3,5-dimethylbenzyl)aminobutyl]ammonium formate]	–	–	–	–	21.5 µM	–	–	–	IC50 (Botrytis cinerea): 1.8 µM; IC50 (Stagonospora nodorum): 7.2 µM; IC50 (Septoria tritici): 11 µM; IC50 (Ustilago maydis ACC; Enzyme activity IC50 U. maydis wt ACC): 11 µM; IC50 (Ustilago maydis ACC; In vitro IC50 U. maydis ACC activity): 17 µM; Effect of K53R mutation on inhibition of ACC by compound (Ustilago maydis K53R ACC): confers resistance to inhibition; Effect on tryptophan fluorescence of yeast BC domain (yeast wt BC domain): quenched; EC50 (yeast wt BC domain): 11 µM
C[N+]1(Cc2ccc(Cl)c(Cl)c2)CCN(CCCn2c(SCc3ccc(Cl)c(Cl)c3)nc3ccc(Br)cc3c2=O)CC1 [Compound 7]	–	–	–	4.3 µM	200 µM	8 µM	4.8 µM	17 µM	–
CC[N+](CC)(CCCCN(Cc1cc(C)cc(C)c1)C(=O)c1ccc2ccccc2c1)Cc1cc(C)cc(C)c1 [Compound 133, Diethyl(3,5-dimethylbenzyl)[N-(3,5-dimethylbenzyl)-2-naphthalenecarboxamidobutyl]ammonium bromide]	3 µM	–	–	–	–	–	–	–	–
